For this test, the system named is Desulfovibrio longus ATCC 51456. The test is described as follows: Biocidal efficacy (bacterial kill) and synergy of glutaraldehyde and surfactants against anaerobic sulfate-reducing bacteria. The class given is cell-based. Conditions: 35° C., 10^6 to 10^7 CFU/mL, salt solution. As to the method: Surfactants and biocides were evaluated for synergy by determining the synergy index (S.I.) of the combination. Synergy index was calculated based on the concentration required to achieve a certain level of bacterial kill when the two antimicrobial compounds (A and B) alone and in combinations. The test organism was anaerobic sulfate-reducing bacteria Desulfovibrio longus ATCC #51456. Surf. A R^1O(CH2CH(CH3)O)5(CH2CH2O)6H Surf. B R^1O(CH2CH(CH3)O)5(CH2CH2O)9H where R^1 is 2-ethylhexyl.
Inside an anaerobic chamber (Bactron anaerobic chamber), a deoxygenated sterile salt solution (3.1183 g of NaCl, 1.3082 mg of NaHCO3, 47.70 mg of KCl, 72.00 mg of CaCl2, 54.49 mg of MgSO4, 172.28 mg of Na2SO4, 43.92 mg of Na2CO3 in 1 L water) was inoculated with Desulfovibrio longus ATCC 51456 to a final bacterial concentration of 10^6 to 10^7 CFU/mL. Aliquots of this cell suspension were then treated with glutaraldehyde, and each of Surf A and B at selected active concentrations. After incubation at 35° C. for 2 hours, viable bacteria in the aliquots were enumerated using serial dilution method.
SI is calculated as follows: Ca/CA+Cb/CB=Synergy Index (“SI”)
Wherein: • Ca=Concentration of biocide A required to achieve a certain level of bacterial kill when used in combination with B • CA=Concentration of biocide A required to achieve a certain level of bacterial kill when used alone • Cb=Concentration of biocide B required to achieve a certain level of bacterial kill when used in combination with A • CB=Concentration of biocide B required to achieve a certain level of bacterial kill when used alone When the sum of Ca/CA and Cb/CB is greater than one, antagonism is indicated.

The results in this text go back to patent US9781928B2, “Microbicidal composition” (Dow Global Technologies LLC, priority 2016, dated 2017).

Turning to `O=CCCCC=O` [Glut, glutaraldehyde, (1,5-pentanedial) CAS No. 111-30-8], where the note is “Glut concentration alone (1:0) or in combination with Surf. A”, the “Concentration (active ppm) for complete bacterial kill in 2 hours, Glut” value turned out to be 13.2 ppm. In addition, where the note is “Glut concentration alone (1:0) or in combination with Surf. B”, the “Concentration (active ppm) for 99.99% bacterial kill in 2 hours, Glut” value is 5.9 ppm.

For the compound “R^1O(CH2CH(CH3)O)5(CH2CH2O)6H where R^1 is 2-ethylhexyl [Surf. A]”, where the note is “Surf. A concentration alone (0:1) or in combination with Glut”, the “Concentration (active ppm) for complete bacterial kill in 2 hours, Surf. A” value was over 100 ppm.

“R^1O(CH2CH(CH3)O)5(CH2CH2O)9H where R^1 is 2-ethylhexyl [Surf. B]”: the “Concentration (active ppm) for 99.99% bacterial kill in 2 hours, Surf B” value (Surf. B concentration alone (0:1) or in combination with Glut) is on record as over 100 ppm.
